Legend:
[1] = test system: Mycobacterium tuberculosis; assay: Minimum bactericidal required against isoniazid resistant Mycobacterium tuberculosis was determined in monolayers of mouse bone marrow macrophages; format: functional
[2] = test system: Mycobacterium tuberculosis; assay: Minimum inhibition concentration required against isoniazid resistant Mycobacterium tuberculosis was determined in monolayers of mouse bone marrow macrophages; format: functional

## NNC(=O)c1ccncc1 [ISONIAZID]
[1]
  MBC: > 1.6 µg/mL
[2]
  MIC: > 0.2 µg/mL

Reference: ChEMBL document CHEMBL1138642, “In vitro advanced antimycobacterial screening of cobalt(II) and copper(II) complexes of fluorinated isonicotinoylhydrazones” (2004)
